Counter-ions that a name gives are not always drawn.
Tests used:
Assay type in all cases: cell-based
[1] = tested on: Klebsiella pneumoniae XNWB 0004; experiment: MIC assay of test compounds combined with ceftazidime (8 μg/mL); details: ceftazidime 8 μg/mL fixed
Method in brief: (§1)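 Frozen strains, thawed and passaged twice on TSA (35±2 °C, 20-24 h), supplied colonies standardised in saline to OD600 0.1-0.15. These suspensions, diluted 300× in 1.1×CAMHB, were exposed to graded compound with constant partner antibiotic; MICs were read after 16-20 h at 35±2 °C.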

[2] = tested on: Klebsiella pneumoniae XNWB 0002; experiment: as above; details: ceftazidime 8 μg/mL fixed
Method in brief: as §1

[3] = tested on: Pseudomonas aeruginosa XNWB 0008; experiment: as above; details: ceftazidime 8 μg/mL fixed
Method in brief: as §1

[4] = tested on: Acinetobacter baumannii XNWB 0007; experiment: as above; details: ceftazidime 8 μg/mL fixed
Method in brief: as §1

[5] = tested on: Klebsiella pneumoniae XNWB 0003; experiment: as above; details: ceftazidime 8 μg/mL fixed
Method in brief: as §1

[6] = tested on: Klebsiella pneumoniae XNWB 0001; experiment: as above; details: ceftazidime 8 μg/mL fixed
Method in brief: as §1

[7] = tested on: Klebsiella pneumoniae XNWB 0005; experiment: as above; details: ceftazidime 8 μg/mL fixed
Method in brief: as §1

[8] = tested on: Klebsiella pneumoniae XNWB 0006; experiment: as above; details: ceftazidime 8 μg/mL fixed
Method in brief: as §1

[9] = tested on: Klebsiella pneumoniae XNWB 0004; experiment: MIC assay of test compounds combined with imipenem (4 μg/mL); details: imipenem 4 μg/mL fixed
Method in brief: as §1

[10] = tested on: Klebsiella pneumoniae XNWB 0002; experiment: as above; details: imipenem 4 μg/mL fixed
Method in brief: as §1

[11] = tested on: Pseudomonas aeruginosa XNWB 0008; experiment: as above; details: imipenem 4 μg/mL fixed
Method in brief: as §1

[12] = tested on: Acinetobacter baumannii XNWB 0007; experiment: as above; details: imipenem 4 μg/mL fixed
Method in brief: as §1

[13] = tested on: Klebsiella pneumoniae XNWB 0003; experiment: as above; details: imipenem 4 μg/mL fixed
Method in brief: as §1

[14] = tested on: Klebsiella pneumoniae XNWB 0001; experiment: as above; details: imipenem 4 μg/mL fixed
Method in brief: as §1

[15] = tested on: Klebsiella pneumoniae XNWB 0005; experiment: as above; details: imipenem 4 μg/mL fixed
Method in brief: as §1

[16] = tested on: Klebsiella pneumoniae XNWB 0006; experiment: as above; details: imipenem 4 μg/mL fixed
Method in brief: as §1

SMILES	The minimum concentration of test compounds combined with ceftazidime (8 μg/mL) for bacteriostasis [1]	The minimum concentration of test compounds combined with ceftazidime (8 μg/mL) for bacteriostasis [2]	The minimum concentration of test compounds combined with ceftazidime (8 μg/mL) for bacteriostasis [3]	The minimum concentration of test compounds combined with ceftazidime (8 μg/mL) for bacteriostasis [4]	The minimum concentration of test compounds combined with ceftazidime (8 μg/mL) for bacteriostasis [5]	The minimum concentration of test compounds combined with ceftazidime (8 μg/mL) for bacteriostasis [6]	The minimum concentration of test compounds combined with ceftazidime (8 μg/mL) for bacteriostasis [7]	The minimum concentration of test compounds combined with ceftazidime (8 μg/mL) for bacteriostasis [8]	The minimum concentration of test compounds combined with imipenem (4 μg/mL) for bacteriostasis [9]	The minimum concentration of test compounds combined with imipenem (4 μg/mL) for bacteriostasis [10]	The minimum concentration of test compounds combined with imipenem (4 μg/mL) for bacteriostasis [11]	The minimum concentration of test compounds combined with imipenem (4 μg/mL) for bacteriostasis [12]	The minimum concentration of test compounds combined with imipenem (4 μg/mL) for bacteriostasis [13]	The minimum concentration of test compounds combined with imipenem (4 μg/mL) for bacteriostasis [14]	The minimum concentration of test compounds combined with imipenem (4 μg/mL) for bacteriostasis [15]	The minimum concentration of test compounds combined with imipenem (4 μg/mL) for bacteriostasis [16]
N=C(N)NC[C@@H](O)c1cc([C@@H]2CC3(CC3)[C@@H]3CN2C(=O)N3OS(=O)(=O)O)no1 [Example 40, (1R,4S)-4-(5-((R)-2-guanidyl-1-hydroxyethyl)isoxazol-3-yl)-6-oxo-5,7-diazaspiro [bicyclo[3.2.1]octane-2,1′-cyclopropan]-7-yl sulfate]	A (A: <8 μg/mL)	A (A: <8 μg/mL)	B (B: 8-16 μg/mL)	C (C: 16-128 μg/mL)	A (A: <8 μg/mL)	A (A: <8 μg/mL)	A (A: <8 μg/mL)	A (A: <8 μg/mL)	A (A: <8 μg/mL)	A (A: <8 μg/mL)	A (A: <8 μg/mL)	C (C: 16-128 μg/mL)	A (A: <8 μg/mL)	A (A: <8 μg/mL)	A (A: <8 μg/mL)	A (A: <8 μg/mL)
CNCCc1cc([C@@H]2CC3(CC3)[C@@H]3CN2C(=O)N3OS(=O)(=O)O)no1 [Example 42, (1R,4S)-4-(5-(2-(methylamino)ethyl)isoxazol-3-yl)-6-oxo-5,7-diazaspiro[bicycle[3.2.1]octane-2,1′-cyclopropan]-7-yl sulfate]	B (B: 8-16 μg/mL)	A (A: <8 μg/mL)	C (C: 16-128 μg/mL)	C (C: 16-128 μg/mL)	A (A: <8 μg/mL)	A (A: <8 μg/mL)	A (A: <8 μg/mL)	A (A: <8 μg/mL)	A (A: <8 μg/mL)	A (A: <8 μg/mL)	B (B: 8-16 μg/mL)	C (C: 16-128 μg/mL)	A (A: <8 μg/mL)	A (A: <8 μg/mL)	A (A: <8 μg/mL)	A (A: <8 μg/mL)
O=C1N2C[C@H](N1OS(=O)(=O)O)C1(CC1)C[C@H]2c1cc(C2CCCNC2)on1 (stereo partly drawn) [Example 44, (1R,4S)-6-oxo-4-(5-(piperidin-3-yl)isoxazol-3-yl)-5,7-diazaspiro[bicyclo[3.2.1]octane-2,1′-cyclopropan]-7-yl sulfate]	B (B: 8-16 μg/mL)	A (A: <8 μg/mL)	B (B: 8-16 μg/mL)	C (C: 16-128 μg/mL)	A (A: <8 μg/mL)	A (A: <8 μg/mL)	A (A: <8 μg/mL)	A (A: <8 μg/mL)	A (A: <8 μg/mL)	A (A: <8 μg/mL)	A (A: <8 μg/mL)	C (C: 16-128 μg/mL)	A (A: <8 μg/mL)	A (A: <8 μg/mL)	A (A: <8 μg/mL)	A (A: <8 μg/mL)
N=C(N)N1CCC(NCCc2cc([C@@H]3CC4(CC4)[C@@H]4CN3C(=O)N4OS(=O)(=O)O)no2)CC1 [Example 47, (1R,4S)-4-(5-(2-((1-amidinopiperidin-4-yl)amino)ethyl)isoxazol-3-yl)-6-oxo-5,7-diazaspiro[bicyclo[3.2.1]octane-2,1′-cyclopropan]-7-yl sulfate]	C (C: 16-128 μg/mL)	A (A: <8 μg/mL)	C (C: 16-128 μg/mL)	C (C: 16-128 μg/mL)	C (C: 16-128 μg/mL)	B (B: 8-16 μg/mL)	C (C: 16-128 μg/mL)	B (B: 8-16 μg/mL)	A (A: <8 μg/mL)	A (A: <8 μg/mL)	A (A: <8 μg/mL)	C (C: 16-128 μg/mL)	A (A: <8 μg/mL)	A (A: <8 μg/mL)	A (A: <8 μg/mL)	A (A: <8 μg/mL)
O=C1N2C[C@H](N1OS(=O)(=O)O)C1(CC1)C[C@H]2c1cc(CNC2CNC2)on1 [Example 48, (1R,4S)-4-(5-((azetidin-3-ylamino)methyl)isoxazol-3-yl)-6-oxo-5,7-diazaspiro[bicycle [3.2.1]octane-2,1′-cyclopropan]-7-yl sulfate]	B (B: 8-16 μg/mL)	A (A: <8 μg/mL)	B (B: 8-16 μg/mL)	C (C: 16-128 μg/mL)	A (A: <8 μg/mL)	A (A: <8 μg/mL)	A (A: <8 μg/mL)	A (A: <8 μg/mL)	A (A: <8 μg/mL)	A (A: <8 μg/mL)	A (A: <8 μg/mL)	C (C: 16-128 μg/mL)	A (A: <8 μg/mL)	A (A: <8 μg/mL)	A (A: <8 μg/mL)	A (A: <8 μg/mL)
